Measured values: publication PMC10754118, “Lipophilic Nucleoside Triphosphate Prodrugs of Anti‐HIV Active Nucleoside Analogs as Potential Antiviral Compounds” (Advanced Science, 2023)
Read-outs that look alike come from different tables or passages of the source. Values belong to the compound of their own block, whether it stands above or below them.

How the values were obtained:
[1] = Chemical hydrolysis in phosphate buffer saline (PBS, pH 7.3); assay type: physicochemical; settings: PBS pH 7.3, 37 °C, read-out: PBS pH 7.3 t 1/2 (converted)
Experimental: (§1) Part 4. Chemical Hydrolysis of TriPPPro-compounds 10 and 20.
Second prepare 1.9 mM hydrolysis […]
(§2) Then, aliquots of 50 µL human

[2] = in vitro; settings: human
Experimental: The hydrolysis properties of TriPPPro‐compounds 10 and 20 were evaluated in phosphate buffer saline (PBS, pH 7.3), pig liver esterase (PLE) or CEM/0 cell extracts. In both cases, hydrolysis products were analyzed by means of analytical RP18‐HPLC and the hydrolysis half‐lives (Table 1 , t1/2 ) of TriPPPro‐compounds 10 and 20 were calculated after complete consumption of the starting materials.
The hydrolysis of TriPPPro‐compounds 10 and 20 was carried out with CEM/0 cell extracts as well. […]
Part 6. Enzyme-Catalyzed Hydrolysis of TriPPPro-compounds 10 and 20 in CEM Cell […]
First prepare 3.0 mM hydrolysis solutions of Tri PPPro-compounds 10 and 20 in DMSO and H2O: 21 µL stock solution (50 mM in DMSO) and 154 µL DMSO, and 175 µL Milli-Q water. Three-twelve different samples (20 µL 3.0 mM hydrolysis solutions) were prepared in 2 mL Eppendorf® vials. Then, aliquots of 50 µL human CEM cell extracts were added to these samples and the reaction was started. The samples were incubated at 37 °C in a thermomixer for different time periods. The reaction was stopped by addition of 150 µL MeOH and kept on ice for 5 min. After centrifugation at 14,000 rpm for 12 min, the supernatants were filtered (Chromafil RC-20/15 MS, 0.2 μm) and stored in liquid nitrogen. When testing, aliquots of 60 µL (injection volume) were analyzed by analytical HPLC (HPLC Method). The calculation of t1/2 was obtained using Origin again.
(§3) Part 7. Hydrolysis of TriPPPro-compounds 10 and 20 in human plasma.
µL 3.0 mM hydrolysis solutions) were prepared in 2 mL Eppendorf® vials.

[3] = tested on: pig liver esterase (PLE); experiment: Hydrolysis with pig liver esterase (PLE); assay type: in vitro ADME; settings: pig liver esterase (PLE) in PBS, PLE in PBS pH 7.3, 37 °C, read-out: PLE t 1/2 (converted)
Excerpt: Next, TriPPPro‐compounds 10 and 20 were exposed to PLE in PBS (pH 7.3) and the half‐lives of TriPPPro‐compounds 10 and 20 are listed in Table 1. […] In contrast, the cleavage of the AB (C4) masking group in TriPPPro‐compounds 10by–hy and 10bz–hz was triggered by ester hydrolysis and yielded the corresponding γ‐alkylated nucleoside triphosphate derivatives 20 (Figure 3B,D) and 21 (Figures S17 and S18, Supporting Information), respectively. […] Moreover, a very small amount of NDPs was observed, probably due to a reaction involving a nucleophilic reaction at the γ‐phosphate or γ‐phosphonate moiety (pathways d and f, Scheme 5). […]
as §1
Second prepare 1.9 mM hydrolysis
Part 5. Hydrolysis of TriPPPro-compounds 10 and 20 with PLE .
Second, 125 µL DMSO and 833 µL
62.5 µL of PLE solution in PBS (100
mixture was stored in the freezer (- 30 °C).
by analytical HPLC (HPLC Method).
similar to that for the chemical hydrolysis studies. […]
as §2

[4] = in vitro; settings: human, plasma
Experimental: First prepare 50 mM solutions of TriPPPro-compounds 10 and 20 in DMSO. […]
First prepare 3.0 mM hydrolysis solutions of Tri PPPro-compounds 10 and 20 in DMSO and H2O: 21 µL stock solution (50 mM in DMSO) and 154 µL DMSO, and 175 µL Milli-Q water. Three-twelve different samples (20 […]
The calculation of t1/2 was obtained using Origin again.
as §3
µL 3.0 mM hydrolysis solutions) were prepared in 2 mL Eppendorf® vials. Then, aliquots of 50 µL human Plasma (Heparin or Citrate) were added to these samples and the reaction was started. The samples were […]
incubated at 37 °C in a thermomixer for different time periods. The reaction was stopped by addition of 150 µL MeOH and kept on ice for 5 min. After centrifugation at 14,000 rpm for 22 min, the supernatants were filtered (Chromafil RC-20/15 MS, 0.2 μm) and stored in liquid nitrogen. When testing, aliquots of 25 0r 30 µL (injection volume) were analyzed by analytical HPLC (HPLC Method). The calculation of t1/2 was obtained using Origin […]
Part 8. Preparation of cell extracts and human plasma. […]

[5] = tested on: HIV‐1 [HE]; experiment: Anti-HIV activity, HIV-1 in wild-type CEM/0 cells; assay type: cell-based; settings: for EC50: Human immunodeficiency virus 1, CCRF-CEM, read-out: Antiviral activity CEM/0 HIV‐1 [HE] EC50
[6] = tested on: HIV‐2 [ROD]; experiment: Anti-HIV activity, HIV-2 in wild-type CEM/0 cells; assay type: cell-based; settings: for EC50: Human immunodeficiency virus 2, CCRF-CEM, read-out: Antiviral activity CEM/0 HIV‐2 [ROD] EC50
Experimental: (§4) Part 9. Anti-HIV activity assay.
(§5) The produce was used as previously reported. 5 Inhibition of HIV-1(IIIB)- and HIV-2(ROD)-induced cytopathogenicity in wild-type CEM/0 and thymidine kinase-deficient CEM/TK– cell cultures was measured in […]
(§6) containing appropriate dilutions of the test compounds. After 4−5 days of incubation at 37 °C in a CO2-controlled humidified atmosphere, CEM giant (syncytium) cell formation was examined microscopically. The […]
(§7) giant cell formation by 50%.
(§8) Part 10. Primer-extension assays. […]

[7] = tested on: HIV‐2 [ROD)]; experiment: Anti-HIV activity, HIV-2 in thymidine kinase-deficient CEM/TK^− cells; assay type: cell-based
Experimental: as §4, §5, §6, §7, §8

[8] = in vitro; settings: human, CEM/0 cells (wild-type CD4+ T-cells)
Experimental: All TriPPPro‐compounds 10 and 20, as well as their parent nucleosides and the corresponding NTPs, were evaluated for their antiviral activity (expressed as EC50 values) against HIV‐1 (wild‐type CEM/0 cells) and HIV‐2 (wild‐type CEM/0 cells and thymidine kinase‐deficient (CEM/TK^−) cells) with concomitant determination of cytotoxicity in the same cell line (Table 3 ).

[9] = t 1/2 in human plasma (over heparin and citrate plasma)
[10] = wild-type CEM/0 cells, mean ±SD n = 2–3
[11] = wild-type CEM/0 cells, vs parent nucleoside
[12] = Human immunodeficiency virus 2, CEM-TK(-), thymidine kinase-deficient CEM/TK^− cells, mean ±SD n = 2–3; read-out: Antiviral activity CEM/TK^− HIV‐2 [ROD)] EC50

SMILES: CCCCCCCCCCCCCCCCCCP(=O)(OCCCC)OP(=O)(O)OP(=O)(O)OC[C@@H]1C=C[C@H](n2cnc3c(NC4CC4)nc(N)nc32)C1 (stereo partly drawn) [10hx]
- half-life at 1.9 mM [1]: > 41.7 days
- half-life at 0.86 mM [2]: > 10 h
- half-life at 0.45 mM [3]: > 150 h
- half-life at 0.86 mM ([4]; Plasma (Citrate) t 1/2): > 20 h
- half-life at 0.86 mM ([4]; Plasma (Heparin) t 1/2): > 20 h
- half-life at 0.86 mM [4, 9]: > 8 h
- EC50 [5]: 150 ± 140 nM
- EC50 [6]: 44 ± 33 nM
- EC50 ([7]; Human immunodeficiency virus 2, CEM-TK(-), read-out: Antiviral activity CEM/TK^− HIV‐2 [ROD)] EC50): 5.8 nM
- CC50 [8]: 38600 nM

SMILES: CCCCCCCCCCCCCCCCCCOP(=O)(OCCCC)OP(=O)(O)OP(=O)(O)OC[C@@H]1C=C[C@H](n2cnc3c(NC4CC4)nc(N)nc32)C1 (stereo partly drawn) [10hv, γ‐(C4;C18)‐ABCTP]
- half-life at 1.9 mM [1]: 10.5 days
- half-life at 0.86 mM [2]: 3 h
- half-life at 0.45 mM [3]: > 150 h
- half-life at 0.86 mM ([4]; Plasma (Citrate) t 1/2): > 20 h
- half-life at 0.86 mM ([4]; Plasma (Heparin) t 1/2): > 8 h
- half-life at 0.86 mM [4, 9]: > 8 h
- EC50 [5, 10]: 24 ± 1.4 nM
- fold improvement compared to cycloSal‐ABCMP, HIV-1 ([5]; wild-type CEM/0 cells): 30 fold
- fold higher activity than the parent nucleoside, HIV-1 [5, 11]: ~400 fold
- EC50 [6, 10]: 46 ± 16 nM
- fold improvement compared to cycloSal‐ABCMP, HIV-2 ([6]; wild-type CEM/0 cells): 16 fold
- fold higher activity than the parent nucleoside, HIV-2 [6, 11]: 80 fold
- fold improved activity compared to the parent nucleoside, HIV-2 ([7]; CEM/TK^− cells, vs parent nucleoside): 410 fold
- fold higher activity compared to the corresponding compound 20 ([7]; HIV-2, CEM/TK^− cells, vs 20h): 33 fold
- EC50 [7, 12]: 4.8 ± 2.1 nM
- improvement of antiviral activity in CEM/TK^− cells compared to wild-type CEM/0 cells ([7]; same compound, CEM/TK^− vs CEM/0): tenfold
- CC50 [8]: 39000 ± 4700 nM

SMILES: CCCCCCCCCCCCCCCCCCP(=O)(OCc1ccc(OC(=O)CCCC)cc1)OP(=O)(O)OP(=O)(O)OC[C@H]1O[C@@H](n2cc(C)c(=O)[nH]c2=O)C[C@@H]1N=[N+]=[N-] (stereo partly drawn) [10bz, γ‐(AB‐C4)‐γ‐C‐(alkyl‐C18)‐AZTTP]
- half-life at 1.9 mM [1]: 41 days
- half-life at 0.86 mM [2]: 8 h
- half-life at 0.45 mM [3]: 0.25 h
- half-life at 0.86 mM ([4]; Plasma (Citrate) t 1/2): 4.4 h
- half-life at 0.86 mM ([4]; Plasma (Heparin) t 1/2): 7.6 h
- half-life at 0.86 mM [4, 9]: 4.4 to 7.6 h
- EC50 [5, 10]: 150 ± 150 nM
- EC50 [6, 10]: 7.5 ± 8.1 nM
- EC50 [7, 12]: 310 ± 26 nM
- CC50 [8]: 58900 nM

SMILES: CCCCCCCCCCCCCCCCCCP(=O)(OCc1ccc(OC(=O)CCCC)cc1)OP(=O)(O)OP(=O)(O)OC[C@@H]1C=C[C@H](n2cnc3c(NC4CC4)nc(N)nc32)C1 (stereo partly drawn) [10hz, γ‐(AB‐C4)‐γ‐C‐(alkyl‐C18)‐ABCTP]
- half-life at 1.9 mM [1]: 22.2 days
- half-life at 0.86 mM [2]: 7.7 h
- half-life at 0.45 mM [3]: 1.11 h
- half-life at 0.86 mM ([4]; Plasma (Citrate) t 1/2): 5.6 h
- half-life at 0.86 mM ([4]; Plasma (Heparin) t 1/2): 4.1 h
- half-life at 0.86 mM [4, 9]: 4.1 to 5.6 h
- EC50 [5, 10]: 200 nM
- EC50 [6, 10]: 170 ± 64 nM
- EC50 [7, 12]: 19 ± 1 nM
- CC50 [8]: 38200 ± 1300 nM

SMILES: CCCCCCCCCCCCCCCCCCOP(=O)(OCCCC)OP(=O)(O)OP(=O)(O)OC[C@H]1O[C@@H](n2cc(/C=C/Br)c(=O)[nH]c2=O)C[C@@H]1O (stereo partly drawn) [10gv]
- half-life at 1.9 mM [1]: > 83.3 days
- half-life at 0.86 mM [2]: > 10 h
- half-life at 0.45 mM [3]: > 150 h
- EC50 [5, 10]: > 10000 nM
- EC50 [6, 10]: 5370 ± 690 nM
- EC50 [7, 12]: 36400 ± 34700 nM
- CC50 [8]: 48000 ± 4200 nM

More lines, main results first:

- half-life at 1.9 mM [1]: > 83.3 days
- half-life at 0.86 mM [2]: > 30 h
- half-life at 0.45 mM [3]: > 150 h
- half-life at 0.86 mM ([4]; Plasma (Citrate) t 1/2): > 20 h
- half-life at 0.86 mM ([4]; Plasma (Heparin) t 1/2): 3.7 h
- EC50 [5, 10]: 28 ± 31 nM
- EC50 [6, 10]: 30 ± 1 nM
- EC50 [7, 12]: 4100 ± 2600 nM
SMILES: CCCCCCCCCCCCCCCCCCOP(=O)(O)OP(=O)(O)OP(=O)(O)OCC1OC(n2cc(C)c(=O)[nH]c2=O)CC1N=[N+]=[N-] (stereo not drawn) [20b, γ‐(alkyl‐C18)‐AZTTP]
- CC50 [8]: > 100000 nM

- half-life at 1.9 mM [1]: > 83.3 days
- half-life at 0.86 mM [2]: > 20 h
- half-life at 0.45 mM [3]: > 150 h
- EC50 [5, 10]: > 10000 nM
- EC50 [6, 10]: > 10000 nM
- EC50 [7, 12]: 15700 ± 980 nM
SMILES: CCCCCCCCCCCCCCCCCCOP(=O)(O)OP(=O)(O)OP(=O)(O)OC[C@H]1O[C@@H](n2cc(/C=C/Br)c(=O)[nH]c2=O)C[C@@H]1O [20g]
- CC50 [8]: > 100000 nM

- half-life at 1.9 mM [1]: > 83.3 days
- half-life at 0.86 mM [2]: > 20 h
- half-life at 0.45 mM [3]: > 150 h
- EC50 [5, 10]: 19 ± 19 nM
- EC50 [6, 10]: 10 ± 1 nM
- EC50 [7, 12]: 1270 ± 540 nM
SMILES: CCCCCCCCCCCCCCCCCCOP(=O)(O)OP(=O)(O)OP(=O)(O)OC[C@H]1O[C@@H](n2cc(C)c(=O)[nH]c2=O)C[C@@H]1F [20f, γ‐C18‐FLTTP]
- CC50 [8]: > 100000 nM

- half-life at 1.9 mM [1]: > 83.3 days
- half-life at 0.86 mM [2]: > 20 h
- half-life at 0.45 mM [3]: > 150 h
- EC50 [5, 10]: 3140 ± 2930 nM
- EC50 [6, 10]: 2240 ± 650 nM
- EC50 [7, 12]: 62100 nM
SMILES: CCCCCCCCCCCCCCCCCCOP(=O)(O)OP(=O)(O)OP(=O)(O)OC[C@H]1O[C@@H](n2cc(Cl)c(=O)[nH]c2=O)C[C@@H]1F [20d]
- CC50 [8]: > 100000 nM
